Patent publication US11541050B2, “Pyrimidine derivatives for the treatment of viral infections” (JANSSEN SCIENCES IRELAND UC, priority 2011, dated 2023)

target: T1, human TLR7 (wild type sequence) (Homo sapiens, UniProt Q9NYK1); experiment: TLR7 cellular NFκB-luc reporter assay, wild type TLR7; type: cell-based; design: unit not given here; details: lowest effective concentration, wild type TLR7 (compounds 74 onward)
T1 construct: expressed in transfected cells; host or cells: HEK293
T1 sequence (Q9NYK1 27-1049): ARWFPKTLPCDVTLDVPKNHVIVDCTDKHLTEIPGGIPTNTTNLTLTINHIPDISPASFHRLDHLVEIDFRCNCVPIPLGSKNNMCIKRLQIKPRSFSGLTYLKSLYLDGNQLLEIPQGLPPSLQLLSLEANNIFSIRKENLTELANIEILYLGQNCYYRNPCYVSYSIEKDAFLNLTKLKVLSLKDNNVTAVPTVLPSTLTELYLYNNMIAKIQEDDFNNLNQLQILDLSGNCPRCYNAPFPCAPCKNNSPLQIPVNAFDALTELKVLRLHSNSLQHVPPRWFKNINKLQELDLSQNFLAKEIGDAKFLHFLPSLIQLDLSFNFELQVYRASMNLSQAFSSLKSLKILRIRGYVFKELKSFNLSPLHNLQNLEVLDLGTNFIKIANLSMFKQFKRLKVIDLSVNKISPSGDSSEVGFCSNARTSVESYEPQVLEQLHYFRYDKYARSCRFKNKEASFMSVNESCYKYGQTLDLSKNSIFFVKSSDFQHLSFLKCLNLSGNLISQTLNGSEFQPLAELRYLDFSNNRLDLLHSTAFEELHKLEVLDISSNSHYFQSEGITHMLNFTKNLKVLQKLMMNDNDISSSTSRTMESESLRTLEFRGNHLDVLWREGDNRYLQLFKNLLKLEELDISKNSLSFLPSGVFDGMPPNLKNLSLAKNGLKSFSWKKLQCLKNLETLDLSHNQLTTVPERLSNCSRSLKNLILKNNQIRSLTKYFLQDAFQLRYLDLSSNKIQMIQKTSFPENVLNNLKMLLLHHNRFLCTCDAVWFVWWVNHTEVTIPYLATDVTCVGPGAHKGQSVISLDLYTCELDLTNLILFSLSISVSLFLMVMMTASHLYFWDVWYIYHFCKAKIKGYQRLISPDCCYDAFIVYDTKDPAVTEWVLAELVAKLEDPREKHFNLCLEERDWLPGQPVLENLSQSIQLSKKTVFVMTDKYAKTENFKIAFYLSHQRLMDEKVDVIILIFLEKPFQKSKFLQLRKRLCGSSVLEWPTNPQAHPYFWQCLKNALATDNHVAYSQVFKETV
Method in brief: (§1)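 Transfected HEK293 cells expressing wild type or second leucine-rich repeat-deleted TLR7 or TLR8 together with an NFκB-luciferase reporter are treated with compound for 6 hours. Activation is measured by luciferase, and LEC is the lowest concentration exceeding the assay standard deviation at least two fold.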

SMILES | TLR 7 wt LEC
CCCCNc1nc(N)ncc1OCCCc1cccc(OC)c1 [Compound 146] | 1.230
CCCCNc1nc(N)ncc1OCCCc1cc(OC)cc(OC)c1 [Compound 147] | 2.520
CCCCNc1nc(N)ncc1OCCCc1cc(OC)ccc1OC [Compound 148] | 0.691
CCCCNc1nc(N)ncc1OCCCc1ccccc1OC [Compound 149] | 2.080
CCCCNc1nc(N)ncc1OCCCc1cccc(OC)c1OC [Compound 150] | 1.180
CCCCNc1nc(N)ncc1OCCCc1ccc2c(c1)OCO2 [Compound 151] | 0.431
CCCCNc1nc(N)ncc1OCCCc1ccc(Cl)cc1Cl [Compound 152] | 5.410
CCCC[C@@H](CO)Nc1nc(N)ncc1OCCCc1ccccc1 [Compound 154] | 3.710
CCCCNc1nc(N)ncc1OCc1nc(-c2ccccc2)no1 [Compound 155] | 2.660
CCCCNc1nc(N)ncc1OCc1noc(-c2ccccc2)n1 [Compound 156] | 0.828
CCCCNc1nc(N)ncc1OCc1cc2ccccc2n(CCC(C)C)c1=O [Compound 158] | 3.080
CCCCNc1nc(N)ncc1OCc1cc2c(cn1)[nH]c1ccccc12 [Compound 159] | 0.159
CCCCNc1nc(N)ncc1OCCCc1cc(OC)c(OC)c(OC)c1 [Compound 160] | 0.756
CCCCNc1nc(N)ncc1OCCCc1cc(OC)c(OC)cc1OC [Compound 161] | 0.672
CCCCNc1nc(N)ncc1OCCCc1ccc(OC)cc1OC [Compound 163] | 0.573
CCCCNc1nc(N)ncc1OCCCc1ccc(OC)c(OC)c1OC [Compound 164] | 0.606
CCC[C@@H](CCO)Nc1nc(N)ncc1OCCCc1ccccc1 [Compound 165] | 0.683
CCCCNc1nc(N)ncc1OCc1cc2ccccc2cn1 [Compound 166] | 0.128
CCCCNc1nc(N)ncc1OCCC(c1ccccc1)c1ccccc1 [Compound 167] | 1.200

target: T2, human TLR8 (wild type sequence) (Homo sapiens, UniProt Q9NR97); experiment: TLR8 cellular NFκB-luc reporter assay, wild type TLR8; type: cell-based; design: unit not given here; details: lowest effective concentration, wild type TLR8 (compounds 74 onward)
T2 construct: expressed in transfected cells; host or cells: HEK293
T2 sequence (Q9NR97 27-1041): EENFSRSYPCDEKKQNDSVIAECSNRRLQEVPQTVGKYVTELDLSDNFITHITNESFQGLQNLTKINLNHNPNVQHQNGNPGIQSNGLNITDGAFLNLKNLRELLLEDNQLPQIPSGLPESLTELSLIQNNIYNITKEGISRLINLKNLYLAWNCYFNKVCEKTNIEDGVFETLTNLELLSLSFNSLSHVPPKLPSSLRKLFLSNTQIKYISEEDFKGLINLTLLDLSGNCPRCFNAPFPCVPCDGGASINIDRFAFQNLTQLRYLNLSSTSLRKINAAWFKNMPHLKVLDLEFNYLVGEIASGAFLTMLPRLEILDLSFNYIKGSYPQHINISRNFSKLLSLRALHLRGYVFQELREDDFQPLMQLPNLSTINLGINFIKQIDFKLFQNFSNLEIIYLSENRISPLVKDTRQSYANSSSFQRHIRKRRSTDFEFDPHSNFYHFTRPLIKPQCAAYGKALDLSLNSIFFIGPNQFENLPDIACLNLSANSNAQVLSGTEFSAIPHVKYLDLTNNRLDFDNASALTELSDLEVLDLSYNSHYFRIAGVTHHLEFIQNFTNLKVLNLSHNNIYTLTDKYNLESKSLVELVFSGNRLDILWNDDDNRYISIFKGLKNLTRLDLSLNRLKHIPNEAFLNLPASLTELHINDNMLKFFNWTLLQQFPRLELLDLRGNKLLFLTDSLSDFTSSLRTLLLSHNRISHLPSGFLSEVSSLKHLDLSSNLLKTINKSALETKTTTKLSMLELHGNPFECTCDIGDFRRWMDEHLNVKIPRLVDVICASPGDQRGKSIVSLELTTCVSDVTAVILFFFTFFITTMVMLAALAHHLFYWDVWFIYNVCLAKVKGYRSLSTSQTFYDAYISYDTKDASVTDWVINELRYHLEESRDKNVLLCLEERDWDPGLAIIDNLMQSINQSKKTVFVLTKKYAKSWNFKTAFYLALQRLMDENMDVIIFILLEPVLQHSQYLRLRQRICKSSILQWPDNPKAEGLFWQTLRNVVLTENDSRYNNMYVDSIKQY
Method in brief: as §1

SMILES | TLR 8 wt LEC
CCCCNc1nc(N)ncc1OCCCc1cccc(OC)c1 [Compound 146] | 2.300
CCCCNc1nc(N)ncc1OCCCc1cc(OC)cc(OC)c1 [Compound 147] | 4.340
CCCCNc1nc(N)ncc1OCCCc1cc(OC)ccc1OC [Compound 148] | 4.850
CCCCNc1nc(N)ncc1OCCCc1ccccc1OC [Compound 149] | 5.850
CCCCNc1nc(N)ncc1OCCCc1cccc(OC)c1OC [Compound 150] | 4.310
CCCCNc1nc(N)ncc1OCCCc1ccc2c(c1)OCO2 [Compound 151] | 1.860
CCCCNc1nc(N)ncc1OCCCc1ccc(Cl)cc1Cl [Compound 152] | >25
CCCC[C@@H](CO)Nc1nc(N)ncc1OCCCc1ccccc1 [Compound 154] | 2.960
CCCCNc1nc(N)ncc1OCc1nc(-c2ccccc2)no1 [Compound 155] | 4.560
CCCCNc1nc(N)ncc1OCc1noc(-c2ccccc2)n1 [Compound 156] | 2.060
CCCCNc1nc(N)ncc1OCc1cc2ccccc2n(CCC(C)C)c1=O [Compound 158] | >25
CCCCNc1nc(N)ncc1OCc1cc2c(cn1)[nH]c1ccccc12 [Compound 159] | 1.080
CCCCNc1nc(N)ncc1OCCCc1cc(OC)c(OC)c(OC)c1 [Compound 160] | 2.710
CCCCNc1nc(N)ncc1OCCCc1cc(OC)c(OC)cc1OC [Compound 161] | 3.480
CCCCNc1nc(N)ncc1OCCCc1ccc(OC)cc1OC [Compound 163] | 2.500
CCCCNc1nc(N)ncc1OCCCc1ccc(OC)c(OC)c1OC [Compound 164] | 23.030
CCC[C@@H](CCO)Nc1nc(N)ncc1OCCCc1ccccc1 [Compound 165] | 1.800
CCCCNc1nc(N)ncc1OCc1cc2ccccc2cn1 [Compound 166] | 0.980
CCCCNc1nc(N)ncc1OCCC(c1ccccc1)c1ccccc1 [Compound 167] | >25

system: HCV replicon in Huh-7 luc/neo cells; experiment: Suppression of HCV replicon replication by conditioned media from compound-treated PBMC; type: cell-based, HCV type 1 b; details: Hepatitis C virus; conditioned media from compound-treated PBMC on Huh-7 luc/neo replicon cells (compounds 74 onward); read-out: PBMC HUH-7 EC50
Method in brief: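 Readout is firefly luciferase from an HCV genotype 1b NS3-NS5B bicistronic replicon in Huh-7 cells, measured 24 h after adding conditioned medium. That medium came from overnight culture of compound-treated PBMC (2×10^5/well, human AB serum, at least two donors). Interferon α-2a was the reference.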

SMILES | EC50 [nM]
CCCCNc1nc(N)ncc1OCCCc1cccc(OC)c1 [Compound 146] | 707
CCCCNc1nc(N)ncc1OCCCc1cc(OC)cc(OC)c1 [Compound 147] | 746
CCCCNc1nc(N)ncc1OCCCc1cc(OC)ccc1OC [Compound 148] | 634
CCCCNc1nc(N)ncc1OCCCc1ccccc1OC [Compound 149] | 703
CCCCNc1nc(N)ncc1OCCCc1cccc(OC)c1OC [Compound 150] | 689
CCCCNc1nc(N)ncc1OCCCc1ccc2c(c1)OCO2 [Compound 151] | 188
CCCCNc1nc(N)ncc1OCCCc1ccc(Cl)cc1Cl [Compound 152] | 3350
CCCC[C@@H](CO)Nc1nc(N)ncc1OCCCc1ccccc1 [Compound 154] | 3020
CCCCNc1nc(N)ncc1OCc1nc(-c2ccccc2)no1 [Compound 155] | 3440
CCCCNc1nc(N)ncc1OCc1noc(-c2ccccc2)n1 [Compound 156] | 697
CCCCNc1nc(N)ncc1OCc1cc2ccccc2n(CCC(C)C)c1=O [Compound 158] | 3310
CCCCNc1nc(N)ncc1OCc1cc2c(cn1)[nH]c1ccccc12 [Compound 159] | 18
CCCCNc1nc(N)ncc1OCCCc1cc(OC)c(OC)c(OC)c1 [Compound 160] | 634
CCCCNc1nc(N)ncc1OCCCc1cc(OC)c(OC)cc1OC [Compound 161] | 629
CCCCNc1nc(N)ncc1OCCCc1ccc(OC)cc1OC [Compound 163] | 728
CCCCNc1nc(N)ncc1OCCCc1ccc(OC)c(OC)c1OC [Compound 164] | 769
CCC[C@@H](CCO)Nc1nc(N)ncc1OCCCc1ccccc1 [Compound 165] | 187
CCCCNc1nc(N)ncc1OCc1cc2ccccc2cn1 [Compound 166] | 46
CCCCNc1nc(N)ncc1OCCC(c1ccccc1)c1ccccc1 [Compound 167] | 764
